Among the data in patent US20040235900A1, “Antimicrobial oxazolifinones with improved pharmacokinetic profile and safety advantages” (priority 2002, published 2004) are MIC, ED50 and melting point values, retold here.

Data set [1] has as its system Methicillin Resistant Staphylococcus aureus MRSA-32. Nature of the data set: In-vitro MIC test (agar dilution), MRSA-32. The data set is classed as cell-based. The conditions noted are these: Staphylococcus aureus, MRSA; Mueller Hinton agar, 24 hrs at 35° C.; read-out: Minimum Inhibitory Concentrations (MIC) MRSA-32. The source says: (§1) The test methods used for verifying the antimicrobial action of compound within the scope of this invention are essentially the same as those described in PCT WO 95/25106, U.S. Pat. No. 5,668,286 and EP 0 750, 618 B1, with the difference that the strains of the organisms used for the MIC determinations in these patents and applications are Staphylococcus aureus ATCC 25923, Staphylococcus epidermidis ATCC 12828, Streptococcus pyogenes ATCC 19615.
(§2) The in-vitro MIC methods of test compounds were determined essentially as described in PCT WO 95/25106, U.S. Pat. No. 5,668,286 and EP 0 750 618 B1.
(§3) Overnight grown cultures of S. aureus organisms in Tryptic Soya broth were diluted in Mueller Hinton Broth to give optical density matching with MacFarland tube 0.5 standard. Cultures were further diluted 1:10 in Mueller Hinton broth. Using Denley's mutipoint inoculator, 10^4 cells were deposited on Mueller Hinton agar (Difco) containing range of 2 fold dilutions of test compounds. These plates were incubated for 24 hrs at 35° C. and MIC results recorded. MIC is defined as minimum drug concentration that inhibits test organisms. For determining MIC of test compounds against Streptococcus pneumoniae, Mueller Hinton agar containing 5% sheep blood was employed.

The test system of data set [2] is Enterococcus faecalis ATCC 29212. Briefly: In-vitro MIC test (agar dilution), E. faecalis. The data set is classed as cell-based. The conditions noted are these: ATCC29212, Mueller Hinton agar, 24 hrs at 35° C., read-out: Minimum Inhibitory Concentrations (MIC) E. faecalis.
Source text: as §1, §2, §3

In data set [3] the test system is Streptococcus pneumoniae ATCC 49619. Briefly: In-vitro MIC test (agar dilution, 5% sheep blood), S. pneumoniae. The data set is classed as cell-based. To be noted: ATCC49619, Mueller Hinton agar containing 5% sheep blood, read-out: Minimum Inhibitory Concentrations (MIC) S. pneumoniae.
Source text: as §1, §2, §3

A further data set concerns MRSA 32. Briefly: Murine assay procedure (systemic MRSA 32 infection, oral treatment). The data set is classed as in vivo, swiss mice. To be noted: Staphylococcus aureus; oral administration, doses 1 hr and 4 hrs after infection; MRSA 32 infected mice; percentage survival on Day 7. On the procedure: Oxazolidinone new chemical entities (NCEs) were evaluated for their in vivo efficacy in a murine infection caused by multi-drug resistant, methicillin resistant Staphylococcus aureus strain, referred to as MRSA 32, a clinical isolate obtained from a hospitalised patient. The procedure used for the murine assay is as follows:
Four weeks old swiss mice of 18-22 gm body weight were infected with MRSA 32 strain suspended in 5% Hog gastric Mucin. The infecting dose of bacteria was set at 1-2×10^8 CFU/animal. The infecting dose was administered in 0.5 ml volume injected into peritonial cavity of mice. The treatment with oxazolidinone NCEs was started one hour after infection by administering 100-200 μl of the suspensions of oxazolidinone compounds in 5% Tween 80 by oral gavage. A repeat dose was similarly administered 3 hrs later. Each oxazolidinone NCE was tested at 2-3 different dosages in the range of 2.5 mg/kg to 20 mg/kg. In each dose group 6 mice were included. As an infection control group 12 mice were infected with MRSA 32 strain without giving any treatment. Normally untreated infected mice die within 24 hrs. due to the systemic spread of infection through out the animal body. […] For compounds affording protection of MRSA infected mice, ED50 dosages were calculated on the basis of percentage survival on Day 7 after infection.
The in-vivo ED50 values using the test compounds were determined essentially by the method as described in PCT WO 95/25106, U.S. Pat. No. 5,668,286 and EP 0 750 618 B1.

Values after ≈ are worked out from the molar mass of the structure shown.

In general, ED50 refers to the dose that gives a 50% effect, or the effect in half of the subjects. Broadly, the melting point is the temperature of the solid-liquid transition. In turn, `CC(=O)NC[C@H]1CN(c2ccc(N3CCC(C(C#N)CO)CC3)c(F)c2)C(=O)O1` (stereo partly drawn) [Compound 17, (S)-N-{3-[4-(4-(1-cyano-2-hydroxyethyl)-piperidin-1-yl)-3-fluoro-phenyl]-2-oxo-oxazolidin-5-ylmethyl}-acetamide] yielded a melting point of 182 to 184 °C. For the same compound, the MIC in data set [1] was determined as 2 µg/mL (≈ 4.95 µM). The MIC in data set [2] was 2 µg/mL (≈ 4.95 µM). Also, the MIC in data set [3] was determined as 2 µg/mL (≈ 4.95 µM). The ED50 in the data set on MRSA 32 was 20 mg/kg.
